Common to all, as to assay: inhibition of tumour cell growth, NCI panel, 48 h
For assay [1], the system named is CCRF-CEM leukemia.
Assay [2] has as its system BT-549 breast.
For assay [3], the system named is CAKI-1 renal.
Assay [4] relates to RPMI-8226 leukemia.
For assay [5], the system named is SW-620 colon.
Assay [6] deals with UACC-257 melanoma.
Assay [7] has as its system HL-60(TB) leukemia.
Assay [8] relates to SR leukemia.
Assay [9] deals with T-47D breast.
Assay [10] relates to MDA-MB-231 breast.
In assay [11] the test system is A498 renal.
Assay [12] deals with IGROV1 ovarian.
The subject of assay [13] is OVCAR-4 ovarian.
The test system of assay [14] is HT29 colon.
The subject of assay [15] is HCC-2998 colon.
Assay [16] deals with U251 CNS.
For assay [17], the system named is SK-MEL-28 melanoma.
Assay [18] has as its system LOX IMVI melanoma.

Structures are written as SMILES.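 Where inhibition never reached the appropriate level, the endpoint shown equals the highest concentration tested. Otherwise, values were interpolated linearly from a five-concentration, 48-hour dose response in 96-well plates. TGI: total growth inhibition.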

As for `O=C(NCCC1([N+](=O)[O-])CCN(C(=O)c2ccccc2)CC1)c1ccccc1`, the TGI is greater than 100 µM in assay [1]; greater than 100 µM in [2]; greater than 100 µM in [3]; greater than 100 µM in [4]; greater than 100 µM in assay [5]; 87.8 µM in assay [6]. Also, the TGI in [7], in assay [8], in assay [9], in assay [10], in [11] and in assay [12] was greater than 100 µM each time. The TGI in assay [13] and in [14] was greater than 100 µM in each case.

For `CCCCC(=O)NS(=NC(=O)c1ccccc1)C(Cl)(Cl)Cl` (stereo not given), the TGI in assay [1], in assay [2], in [15], in assay [4], in [5] and in assay [16] was greater than 100 µM each time. The TGI in assay [6], in assay [7], in assay [17], in [18], in assay [8] and in assay [9] was greater than 100 µM throughout. Moreover, the TGI in [10], in [12], in [13] and in [14] was greater than 100 µM in each case.

On to `O=C1CC2(c3ccccc3)ON=C(c3ccccc3)N2c2ccccc2N1` (stereo not given), for which the TGI in assay [1], in assay [2], in assay [15], in [4], in [5] and in [16] was greater than 100 µM in each case. In addition, the TGI in assay [6], in [7], in assay [17], in assay [18], in [8] and in assay [9] was greater than 100 µM each time. In addition, the TGI in [10], in assay [11], in [12], in [13] and in assay [14] was greater than 100 µM in each case.

As for `CCC12CCCN(Cc3ccccc3)C1c1c([nH]c3ccccc13)C(C(=O)OC)C2` (stereo not given), the TGI in assay [1], in assay [2], in [15], in [3], in assay [4] and in assay [5] was greater than 10 µM in each case. In addition, the TGI in assay [16], in assay [6], in [7], in [17], in assay [18] and in assay [8] was greater than 10 µM each time. The TGI in assay [9], in assay [10], in assay [12], in assay [13] and in [14] was greater than 10 µM in each case.

As to `C1CCC2(CC1)O[C@@H]1[C@@H](O2)[C@@H](O[C@H]2O[C@@H]3COC4(CCCCC4)O[C@H]3[C@@H]3OC4(CCCCC4)O[C@@H]23)O[C@@H]2COC3(CCCCC3)O[C@@H]12`, the TGI in assay [1], in assay [2], in assay [3], in assay [4], in assay [5] and in assay [16] was greater than 100 µM in each case. For the same compound, the TGI in assay [6], in assay [7], in assay [17], in assay [18], in [9] and in assay [10] was greater than 100 µM each time. For the same compound, the TGI in assay [11], in assay [12], in [13] and in assay [14] was greater than 100 µM each time.

With `O=CN1CCN(C(=O)c2ccc(Cl)cc2Cl)C1=S`, the TGI in [1], in assay [2], in [15], in assay [3], in assay [4] and in assay [5] was greater than 100 µM each time. Further, the TGI was greater than 100 µM in assay [16]; greater than 100 µM in [6]; 69.2 µM in [7]; greater than 100 µM in assay [17]; greater than 100 µM in assay [18]; greater than 100 µM in assay [9]. Moreover, the TGI in assay [10], in [11], in [12], in assay [13] and in assay [14] was greater than 100 µM in each case.

Turning to `CCC(CON(C)c1ccccc1)(SC)SC`, the TGI in [1], in assay [2], in assay [15], in assay [3], in assay [4] and in assay [5] was greater than 100 µM each time. Further, the TGI in assay [16], in assay [6], in assay [7], in [17], in assay [18] and in [8] was greater than 100 µM each time. Further, the TGI in assay [9], in assay [10], in assay [12], in [13] and in assay [14] was greater than 100 µM throughout.

Turning to `NC(N)=N/N=C/c1nc2n(c1[N+](=O)[O-])CCS2`, the TGI is greater than 100 µM in assay [2]; greater than 100 µM in assay [3]; greater than 100 µM in assay [4]; greater than 100 µM in [5]; 89.3 µM in assay [16]; 44.6 µM in assay [6]. The TGI in assay [7] is 55 µM; in [17], greater than 100 µM; in [18], 92.6 µM; in assay [8], 88.2 µM; in [9] it was 67.4 µM; in assay [10], greater than 100 µM. Moreover, the TGI in [11] was greater than 100 µM; in [12], greater than 100 µM; in assay [13], 41 µM; in assay [14], greater than 100 µM.

Values taken from PubChem BioAssay (NCI).
